Experimental data as given in US5698580A, “Antiviral agent containing benzodithiin derivative as active ingredient” (Rational Drug Design Laboratories, priority 1994, dated 1997).
Values after ≈ are worked out from the molar mass of the structure shown.

Key:
RS virus [1] = test: Suppression of RS virus assayed by the MTT method (Experimental Example 1); type: cell-based, RS virus Long strain; conditions: for EC50: 120 h, concentration inhibiting HeLa cell destruction by RS virus infection by 50%, 35° C., 5 days, MTT; for S.I. (selectivity index, CC50/EC50): ratio of CC50 to EC50, MTT method
Protocol: (§1) After the completion of the centrifugation, the media were incubated in a CO2 gas incubator at 35° C. for 5 days. The MTT [3-(4,5-dimethylthiazol-2-yl)-2,5-diphenyltetrazolium bromide] solution was added to the media at 4 hours before the completion of the incubation, and the proportion of viable cells was colorimetrically determined on a microplate reader. The concentration of the compound at which cell destruction by RS virus infection was inhibited by 50% is shown as antiviral activity (EC50). In addition, 50% cytotoxicity value (CC50) of the compound was calculated from the tests run concurrently without inoculation of RS virus. The ratio of CC50 to EC50 was determined as S.I. (selectivity index, CC50 /EC50).

in vitro [2] = type: cell-based; conditions: human, hela cells
Protocol: as §1, with “Maintenance media (Eagle's MEM media supplemented with 2% bovine serum albumin) containing compounds 1-13 or Ribavirin (control drug) at various concentrations, a HeLa cell suspension prepared in advance by digestion with trypsin, and maintenance media containing RS virus Long strain were plated in 96 well round-bottom microplates, and centrifuged at a low speed (700×g) for 5 minutes at room temperature. After” for “After”

RS virus [3] = test: Suppression of RS virus assayed by plaque reduction method (Experimental Example 2); type: cell-based, RS virus Long strain; conditions: for EC50: 96 h, concentration decreasing number of plaques by 50%, HeLa cells, 35° C., 4 days; for S.I. (selectivity index, CC50/EC50): ratio of CC50 to EC50, plaque reduction method
Protocol: (§2) The confluently grown HeLa cells in 24 well flat-bottom multitrays were inoculated with RS virus Long strain prepared in a maintenance medium (Eagle's MEM medium supplemented with 2% bovine serum albumin), and the cells were incubated in a CO2 gas incubator at 35° C. for one hour. Culture solution was discarded and the cells were washed with a maintenance medium. Then, maintenance media (supplemented with 0.6% methylcellulose) containing Compound 1 or Ribavirin (control drug) at various concentrations were added, and the media were incubated in a CO2 gas incubator at 35° C. for 4 days. After the completion of the incubation, the cells were fixed with a 5% aqueous formalin solution for 6 hours and washed with tap water. Then, the cells were stained with a 0.025% aqueous crystal violet solution. The infected cell plaques which were not stained with crystal violet were microscopically counted. The plaques formed using the compound at various concentrations and those of control group without the compound were counted, and the concentration of the compound at which the number of plaques was decreased by 50% is shown as an antiviral activity (EC50). In addition, 50% cytotoxicity (CC50) of the compound was calculated by the MTT method. The ratio of CC50 to EC50 was determined as S.I. (selectivity index, CC50 /EC50).

in vitro [4] = type: cell-based; conditions: human, hela cells; remark: listed apart in the source
Protocol: as §2

RS virus [5] = conditions: background art; cited from earlier work
[6] = background art; cited from earlier work

Row | EC50 (RS virus [1]) [µg/mL] | Structure (SMILES) | S.I. (selectivity index, CC50/EC50) (RS virus [1]) | CC50 at 120 h (in vitro [2]) [µg/mL] | EC50 (RS virus [3]) [µg/mL] | S.I. (selectivity index, CC50/EC50) (RS virus [3]) | CC50 (in vitro [4]) [µg/mL] | effect against RS virus (RS virus [5]) | teratogenicity, carcinogenicity and mutagenicity [6] | toxicity [6]
1 | 0.3 (≈ 1.78 µM) | c1ccc2c(c1)CSSC2 [Compound 1, 1,4-dihydro-2,3-benzodithiin] | 143.3 | 43 (≈ 256 µM) | 1.7 (≈ 10.1 µM) | 26.29 | 44.7 (≈ 266 µM) |  |  | 
2 | 0.2 (≈ 1.1 µM) | Cc1ccc2c(c1)CSSC2 [Compound 6, 1,4-dihydro-6-methyl-2,3-benzodithiin] | 224 | 44.7 (≈ 245 µM) |  |  |  |  |  | 
3 | 0.8 (≈ 4.29 µM) | Fc1ccc2c(c1)CSSC2 [Compound 9, 1,4-dihydro-6-fluoro-2,3-benzodithiin] | 72.1 | 57.7 (≈ 310 µM) |  |  |  |  |  | 
4 | 1.7 (≈ 8.39 µM) | Clc1ccc2c(c1)CSSC2 [Compound 11, 6-chloro-1,4-dihydro-2,3-benzodithiin] | 9.9 | 16.8 (≈ 82.9 µM) |  |  |  |  |  | 

Further lines, the compound ahead of its results:

Row | Structure (SMILES) | EC50 (RS virus [1]) [µg/mL] | S.I. (selectivity index, CC50/EC50) (RS virus [1]) | CC50 at 120 h (in vitro [2]) [µg/mL] | EC50 (RS virus [3]) [µg/mL] | S.I. (selectivity index, CC50/EC50) (RS virus [3]) | CC50 (in vitro [4]) [µg/mL] | effect against RS virus (RS virus [5]) | teratogenicity, carcinogenicity and mutagenicity [6] | toxicity [6]
5 | O=[N+]([O-])c1ccc2c(c1)CSSC2 [Compound 2, 1,4-dihydro-6-nitro-2,3-benzodithiin] | 1.9 (≈ 8.91 µM) | 4.7 | 8.9 (≈ 41.7 µM) |  |  |  |  |  | 
6 | Nc1ccc2c(c1)CSSC2 [Compound 3, 6-amino-1,4-dihydro-2,3-benzodithiin] | 3 (≈ 16.4 µM) | 1.7 | 5.1 (≈ 27.8 µM) |  |  |  |  |  | 
7 | COC(=O)c1ccc2c(c1)CSSC2 [Compound 4, methyl 1,4-dihydro-2,3-benzodithiin-6-carboxylate] | 1.8 (≈ 7.95 µM) | 5.4 | 9.7 (≈ 42.9 µM) |  |  |  |  |  | 
8 | O=C(O)c1ccc2c(c1)CSSC2 [Compound 5, 1,4-dihydro-2,3-benzodithiin-6-carboxylic acid] | 11.8 (≈ 55.6 µM) | 4.0 | 47.2 (≈ 222 µM) |  |  |  |  |  | 
9 | c1ccc(COc2ccc3c(c2)CSSC3)cc1 [Compound 7, 6-benzyloxy-1,4-dihydro-2,3-benzodithiin] | > 9.6 |  | 9.6 (≈ 35 µM) |  |  |  |  |  | 
10 | COc1ccc2c(c1)CSSC2 [Compound 8, 1,4-dihydro-6-methoxy-2,3-benzodithiin] | 1.6 (≈ 8.07 µM) | 8.0 | 12.8 (≈ 64.5 µM) |  |  |  |  |  | 
11 | Fc1cccc2c1CSSC2 [Compound 10, 1,4-dihydro-5-fluoro-2,3-benzodithiin] | 1.1 (≈ 5.91 µM) | > 90.9 | > 100 |  |  |  |  |  | 
12 | CN(C)c1ccc2c(c1)CSSC2 [Compound 12, 1,4-dihydro-6-N,N-dimethylamino-2,3-benzodithiin] | 2.3 (≈ 10.9 µM) | 14.5 | 33.3 (≈ 158 µM) |  |  |  |  |  | 
13 | CC(C)(C)c1ccc2c(c1)CSSC2 [Compound 13, 6-tert-butyl-1,4-dihydro-2,3-benzodithiin] | 6.5 (≈ 29 µM) | 2.3 | 15.2 (≈ 67.7 µM) |  |  |  |  |  | 
14 | NC(=O)c1ncn([C@@H]2O[C@H](CO)[C@@H](O)[C@H]2O)n1 [Ribavirin, reference compound] | 7.6 (≈ 31.1 µM) | 13.2 | > 100 | 3.7 (≈ 15.2 µM) | 27.03 | > 100 | effective against RS virus | teratogenic, carcinogenic and mutagenic | high toxicity
